Data taken from patent US20030166601A1, “Novel colloid synthetic vectors for gene therapy” (priority 1999, published 2003).

How the values were obtained:
[1] = test system: cultured cells; experiment: Transfection of cultured cells, luciferase activity; assay type: cell-based
From the text: The gene delivery ability of substituted aminoethanols with long chain hydrocarbon (aliphatic) substitutients was studied by transfection of cultured cells and then in vivo by intravenous injection (Table 2 and 3). The substituted aminoethanols have two hydrophilic polar heads connected with one hydrophobic body, which was named bihead lipids. Bihead lipids are proposed to form a monolayer membrane.

[2] = test system: CD-1 mice; experiment: Luciferase expression in organs after intravenous injection of pCILuc complexes; assay type: in vivo; settings: for Luciferase RLU/20 ul lysate heart / Luciferase RLU/20 ul lysate kidney / Luciferase RLU/20 ul lysate liver / Luciferase RLU/20 ul lysate lung / Luciferase RLU/20 ul lysate spleen / Luciferase RLU/20 μl lysate heart / Luciferase RLU/20 μl lysate kidney / Luciferase RLU/20 μl lysate liver / Luciferase RLU/20 μl lysate lung / Luciferase RLU/20 μl lysate spleen: 40 μg pCILuc i.v., 5 h
Experimental: Substituted aminoethanols (cationic compounds) were prepared as described in Examples 1-34. Their gene delivery ability was studied in vivo by intravenous injection (Table 1 and 2) using a standard method. The preparations were administered via tail vein injection to mice and gene expression determined after 5 hours. Female CD-1 mice, 13-15 g, were purchased from Charles River Inc. Forty microgram of pCILuc complexed with GC lipids or GC lipid:Chol dispersion as indicated weight ratios. After 5 h, mice were sacrificed and organs were collected. Organs were homogenized in 0.5 ml of lysis buffer and 20 μl of supernatant was used for luciferase assay. Luciferase activity was represented as a mean of relative light unit (RLU) of four mice. The lipids were either used alone or combined with cholesterol and complexed with a luciferase reporter gene plasmid by a standard procedure at a range of weight and charge ratios. For the in vivo screen, 40 μg of pCILuc was complexed with the formulation and injected into the mice.
All compounds were evaluated for in vivo activity. Two critical factors were examined, formulation with or without cholesterol and the ratio of cationic lipid to DNA. Cholesterol was tested at 1:1 mole ratio of lipid:chol. The studies were performed with a dose of 40 μg of pCILuc complexed with cationic lipid or lipid: Chol (1:1 mole ratio) injected i.v. into CD-1 mice and then luciferase activity in different organs determined 5 h later. The first evaluation included all of 14 GC-lipids at weight ratios of 2 and 10 (GC lipid to DNA). It was performed by four separated experiments. Each time cationic liposome DOTAP:Chol was used as a standard control.
Measurements were repeated with lipids GC-030, GC-034 and GC-029 at wider weight ratios than the first experiment. Luciferase activity is represented as a mean of relative light unit (RLU) of four mice. WR means weight ratio of GC lipids to DNA. The transfection activity was represented by luciferase activity RLU/organ. […] The transfection activity increased with the increased weight ratio (GC lipids to DNA). Inclusion of cholesterol can change the biodistribution of gene expression in the different organs examined. […] However this function of cholesterol was not seen with GC-034.

CCCCCCCCCCCCCCC(O)CN(CCCN)CCCCCCCCCCCCCN(CCCN)CC(O)CCCCCCCCCCCCCC (centres unmarked) [CGP44015A]
Luciferase activity Ave. RLU × 10000/well FBS(+) ([1]; charge ratio (+/−) 0.5): 130 RLU × 10000/well | Luciferase activity Ave. RLU × 10000/well FBS(−) ([1]; charge ratio (+/−) 0.5): 159 RLU × 10000/well | Luciferase activity Ave. RLU × 10000/well FBS(+) ([1]; charge ratio (+/−) 1): 3,373 RLU × 10000/well | Luciferase activity Ave. RLU × 10000/well FBS(−) ([1]; charge ratio (+/−) 1): 3,252 RLU × 10000/well | Luciferase activity Ave. RLU × 10000/well FBS(+) ([1]; charge ratio (+/−) 2): 17,315 RLU × 10000/well | Luciferase activity Ave. RLU × 10000/well FBS(−) ([1]; charge ratio (+/−) 2): 17,063 RLU × 10000/well | Luciferase activity Ave. RLU × 10000/well FBS(+) ([1]; charge ratio (+/−) 4): 25,732 RLU × 10000/well | Luciferase activity Ave. RLU × 10000/well FBS(−) ([1]; charge ratio (+/−) 4): 24,484 RLU × 10000/well | Luciferase activity Ave. RLU × 10000/well FBS(+) ([1]; charge ratio (+/−) 6): 27,844 RLU × 10000/well | Luciferase activity Ave. RLU × 10000/well FBS(−) ([1]; charge ratio (+/−) 6): 24,089 RLU × 10000/well | Luciferase activity Ave. RLU × 10000/well FBS(+) ([1]; charge ratio (+/−) 8): 27,298 RLU × 10000/well | Luciferase activity Ave. RLU × 10000/well FBS(−) ([1]; charge ratio (+/−) 8): 24,150 RLU × 10000/well | Luciferase RLU/20 ul lysate heart ([2]; CR 0.5): 74 RLU/20 ul lysate | Luciferase RLU/20 ul lysate kidney ([2]; CR 0.5): 72 RLU/20 ul lysate | Luciferase RLU/20 ul lysate liver ([2]; CR 0.5): 86 RLU/20 ul lysate | Luciferase RLU/20 ul lysate lung ([2]; CR 0.5): 82 RLU/20 ul lysate | Luciferase RLU/20 ul lysate spleen ([2]; CR 0.5): 80 RLU/20 ul lysate | Luciferase RLU/20 ul lysate heart ([2]; CR 1): 73 RLU/20 ul lysate | Luciferase RLU/20 ul lysate kidney ([2]; CR 1): 71 RLU/20 ul lysate | Luciferase RLU/20 ul lysate liver ([2]; CR 1): 219 RLU/20 ul lysate | Luciferase RLU/20 ul lysate lung ([2]; CR 1): 95 RLU/20 ul lysate | Luciferase RLU/20 ul lysate spleen ([2]; CR 1): 168 RLU/20 ul lysate | Luciferase RLU/20 ul lysate heart ([2]; CR 4): 379 RLU/20 ul lysate | Luciferase RLU/20 ul lysate kidney ([2]; CR 4): 528 RLU/20 ul lysate | Luciferase RLU/20 ul lysate liver ([2]; CR 4): 3,817 RLU/20 ul lysate | Luciferase RLU/20 ul lysate lung ([2]; CR 4): 19,717 RLU/20 ul lysate | Luciferase RLU/20 ul lysate spleen ([2]; CR 4): 4,778 RLU/20 ul lysate | Luciferase RLU/20 ul lysate heart ([2]; CR 10): 103 RLU/20 ul lysate | Luciferase RLU/20 ul lysate kidney ([2]; CR 10): 281 RLU/20 ul lysate | Luciferase RLU/20 ul lysate liver ([2]; CR 10): 1,283 RLU/20 ul lysate | Luciferase RLU/20 ul lysate lung ([2]; CR 10): 4,470 RLU/20 ul lysate | Luciferase RLU/20 ul lysate spleen ([2]; CR 10): 4,108 RLU/20 ul lysate | Luciferase RLU/20 ul lysate heart ([2]; CR 20): 75 RLU/20 ul lysate | Luciferase RLU/20 ul lysate kidney ([2]; CR 20): 70 RLU/20 ul lysate | Luciferase RLU/20 ul lysate liver ([2]; CR 20): 243 RLU/20 ul lysate | Luciferase RLU/20 ul lysate lung ([2]; CR 20): 84 RLU/20 ul lysate | Luciferase RLU/20 ul lysate spleen ([2]; CR 20): 69 RLU/20 ul lysate | expression in vivo by core complexes ([2]; mouse, in vivo): exhibit expression in vivo

CCCCCCCCCCCCCCC(O)CN(CCN)CCCCCCCCNCCCN (centres unmarked) [CGP44207A]
Luciferase activity Ave. RLU × 10000/well FBS(+) ([1]; charge ratio (+/−) 0.5): 12 RLU × 10000/well | Luciferase activity Ave. RLU × 10000/well FBS(−) ([1]; charge ratio (+/−) 0.5): 12 RLU × 10000/well | Luciferase activity Ave. RLU × 10000/well FBS(+) ([1]; charge ratio (+/−) 1): 9 RLU × 10000/well | Luciferase activity Ave. RLU × 10000/well FBS(−) ([1]; charge ratio (+/−) 1): 11 RLU × 10000/well | Luciferase activity Ave. RLU × 10000/well FBS(+) ([1]; charge ratio (+/−) 2): 12 RLU × 10000/well | Luciferase activity Ave. RLU × 10000/well FBS(−) ([1]; charge ratio (+/−) 2): 15 RLU × 10000/well | Luciferase activity Ave. RLU × 10000/well FBS(+) ([1]; charge ratio (+/−) 4): 22 RLU × 10000/well | Luciferase activity Ave. RLU × 10000/well FBS(−) ([1]; charge ratio (+/−) 4): 28 RLU × 10000/well | Luciferase activity Ave. RLU × 10000/well FBS(+) ([1]; charge ratio (+/−) 6): 15 RLU × 10000/well | Luciferase activity Ave. RLU × 10000/well FBS(−) ([1]; charge ratio (+/−) 6): 22 RLU × 10000/well | Luciferase activity Ave. RLU × 10000/well FBS(+) ([1]; charge ratio (+/−) 8): 13 RLU × 10000/well | Luciferase activity Ave. RLU × 10000/well FBS(−) ([1]; charge ratio (+/−) 8): 17 RLU × 10000/well

CCCCCCCCCCCCCCCCCC(CCCCCCCCCCCCCCCCC)NC(=O)CNC(=O)CNC(=O)[C@H](CCCNCCCN)NCCCN.O=C(O)C(F)(F)F.O=C(O)C(F)(F)F.O=C(O)C(F)(F)F.O=C(O)C(F)(F)F [GC-038]
Luciferase RLU/20 μl lysate heart ([2]; WR 2): 101 RLU/20 μl lysate | Luciferase RLU/20 μl lysate kidney ([2]; WR 2): 60 RLU/20 μl lysate | Luciferase RLU/20 μl lysate liver ([2]; WR 2): 59 RLU/20 μl lysate | Luciferase RLU/20 μl lysate lung ([2]; WR 2): 142 RLU/20 μl lysate | Luciferase RLU/20 μl lysate heart ([2]; WR 10): 57 RLU/20 μl lysate | Luciferase RLU/20 μl lysate kidney ([2]; WR 10): 58 RLU/20 μl lysate | Luciferase RLU/20 μl lysate liver ([2]; WR 10): 93 RLU/20 μl lysate | Luciferase RLU/20 μl lysate lung ([2]; WR 10): 63 RLU/20 μl lysate | Luciferase RLU/20 μl lysate spleen ([2]; WR 10): 160 RLU/20 μl lysate | Luciferase RLU/20 μl lysate spleen ([2]; WR (lipid to DNA) 2): 61 RLU/20 μl lysate

CCCCCCCCCCCCCCCCCC(CCCCCCCCCCCCCCCCC)NC(=O)CNC(=O)CNC(=O)[C@@H](N)CCCN.O=C(O)C(F)(F)F.O=C(O)C(F)(F)F [GC-039]
Luciferase RLU/20 μl lysate heart ([2]; WR 2): 50 RLU/20 μl lysate | Luciferase RLU/20 μl lysate kidney ([2]; WR 2): 45 RLU/20 μl lysate | Luciferase RLU/20 μl lysate liver ([2]; WR 2): 48 RLU/20 μl lysate | Luciferase RLU/20 μl lysate lung ([2]; WR 2): 52 RLU/20 μl lysate | Luciferase RLU/20 μl lysate heart ([2]; WR 10): 45 RLU/20 μl lysate | Luciferase RLU/20 μl lysate kidney ([2]; WR 10): 54 RLU/20 μl lysate | Luciferase RLU/20 μl lysate liver ([2]; WR 10): 212 RLU/20 μl lysate | Luciferase RLU/20 μl lysate lung ([2]; WR 10): 753 RLU/20 μl lysate | Luciferase RLU/20 μl lysate spleen ([2]; WR 10): 845 RLU/20 μl lysate | Luciferase RLU/20 μl lysate spleen ([2]; WR (lipid to DNA) 2): 288 RLU/20 μl lysate

CCCCCCCCCCCCCCCCCCN(CCCCCCCCCCCCCCCCCC)C(=O)[C@H](CCC(=O)NCCN(CCNC(=O)CC[C@H](NC(=O)[C@H](CCCNCCCN)NCCCN)C(=O)N(CCCCCCCCCCCCCCCCCC)CCCCCCCCCCCCCCCCCC)CCNC(=O)CC[C@H](NC(=O)[C@H](CCCNCCCN)NCCCN)C(=O)N(CCCCCCCCCCCCCCCCCC)CCCCCCCCCCCCCCCCCC)NC(=O)[C@H](CCCNCCCN)NCCCN.O=C(O)C(F)(F)F.O=C(O)C(F)(F)F.O=C(O)C(F)(F)F.O=C(O)C(F)(F)F.O=C(O)C(F)(F)F.O=C(O)C(F)(F)F.O=C(O)C(F)(F)F.O=C(O)C(F)(F)F.O=C(O)C(F)(F)F.O=C(O)C(F)(F)F.O=C(O)C(F)(F)F.O=C(O)C(F)(F)F.O=C(O)C(F)(F)F [GC-071]
Luciferase RLU/20 μl lysate heart ([2]; WR 2): 60 RLU/20 μl lysate | Luciferase RLU/20 μl lysate kidney ([2]; WR 2): 58 RLU/20 μl lysate | Luciferase RLU/20 μl lysate liver ([2]; WR 2): 59 RLU/20 μl lysate | Luciferase RLU/20 μl lysate lung ([2]; WR 2): 56 RLU/20 μl lysate | Luciferase RLU/20 μl lysate heart ([2]; WR 10): 61 RLU/20 μl lysate | Luciferase RLU/20 μl lysate kidney ([2]; WR 10): 67 RLU/20 μl lysate | Luciferase RLU/20 μl lysate liver ([2]; WR 10): 531 RLU/20 μl lysate | Luciferase RLU/20 μl lysate lung ([2]; WR 10): 73 RLU/20 μl lysate | Luciferase RLU/20 μl lysate spleen ([2]; WR 10): 286 RLU/20 μl lysate | Luciferase RLU/20 μl lysate spleen ([2]; WR (lipid to DNA) 2): 61 RLU/20 μl lysate
